The target of one assay is T1, AspRedAm (Aspergillus oryzae, UniProt Q2TW47).
T1 construct: gene AO090010000708; N-terminal His tag, expressed in E. coli BL21(DE3), Ni-NTA purified; dimer
T1 sequence (Q2TW47 1-295): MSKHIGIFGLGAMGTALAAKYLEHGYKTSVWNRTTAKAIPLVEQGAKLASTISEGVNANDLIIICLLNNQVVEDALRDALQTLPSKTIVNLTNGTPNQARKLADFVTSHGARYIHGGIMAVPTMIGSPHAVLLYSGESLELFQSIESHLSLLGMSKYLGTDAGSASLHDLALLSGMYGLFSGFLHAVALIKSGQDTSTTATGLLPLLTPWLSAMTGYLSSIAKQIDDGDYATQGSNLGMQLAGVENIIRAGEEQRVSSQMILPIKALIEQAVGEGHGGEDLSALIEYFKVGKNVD
Put plainly: reductive amination, HPLC or LC-MS conversion. Format: biochemical. The conditions noted are these: 5 mM each, NADP+/GDH/glucose recycling, pH 7.0.

Assay [1] has as its target IR-G02 (imine reductase from Streptomyces albidoflavus) (Streptomyces albidoflavus). Briefly: crystal structure; apo IR-G02; sitting-drop vapour diffusion at 18 °C; 0.2 M ammonium acetate, 0.1 M Bis-Tris 5.5, 25 % w/v PEG 3350; protein 20 mg ml^-1.
In another assay the target is T2, IR-G02 (Streptomyces albidoflavus, UniProt Z9MF94CC36).
T2 construct: N-terminal His6 tag, expressed in E. coli BL21(DE3), Ni-NTA and SEC purified; homodimer with active site at the interface
T2 sequence (Z9MF94CC36 21-319): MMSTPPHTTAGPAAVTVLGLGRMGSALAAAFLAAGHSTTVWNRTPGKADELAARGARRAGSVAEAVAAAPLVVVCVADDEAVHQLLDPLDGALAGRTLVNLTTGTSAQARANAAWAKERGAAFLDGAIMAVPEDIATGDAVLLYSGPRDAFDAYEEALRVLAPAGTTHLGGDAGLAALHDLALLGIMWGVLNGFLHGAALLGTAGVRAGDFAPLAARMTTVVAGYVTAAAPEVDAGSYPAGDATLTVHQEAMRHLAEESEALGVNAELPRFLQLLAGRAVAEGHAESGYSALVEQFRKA
Briefly: X-ray crystallography. Format: binding. The conditions noted are these: co-crystallised with 10 eq NADP+, pH 7.5, 18 °C.

Compound `NC1CC1` [A, cyclopropylamine] had a conversion on AspRedAm (amine donor with cyclohexanone) of over 90%. Regarding “IR-G02 (imine reductase from Streptomyces albidoflavus) (enzyme)”, in assay [1], the stoichiometry N (commonly a count of units in the complex or per binding partner) came to 2.

On to `O=C1CCCCC1` [compound 1, cyclohexanone], for which the conversion on AspRedAm (carbonyl donor with cyclopropylamine) is over 90%. With `NC(=O)c1ccc[n+]([C@@H]2O[C@H](COP(=O)(O)OP(=O)(O)OC[C@H]3O[C@@H](n4cnc5c(N)ncnc54)[C@H](OP(=O)(O)O)[C@@H]3O)[C@@H](O)[C@H]2O)c1` [NADP^+], the X-ray crystallography entry on IR-G02 is “NADP^+ complex of IR-G02 (PDB ID: 7XR5)”.
